This passage reports ring closure, yield after HPLC results from patent publication US10189820.

For the series the following is noted: amide bond; 22-membered ring; HATU/DIEA; NMP; 68.9 mM; 140.0 °C; 2 steps.

With “8-ethyl-10,18,30-trimethyl-7,20-dioxo-7,8,11,12,13,14,15,20,21,28,29,30,31,32-tetradecahydro-benzo[4,5]imidazo[2,1-b]benzo[4,5]imidazo[1,2-i]dipyrazolo[5,1-m:4′,3′-t][1,3,6,9,11,14]hexaazacyclodocosine-3,24-dicarboxamide”, the ring closure, yield after HPLC came out at 4.56%.
